Key:
dUTP pyrophosphatase [1] = target: dUTP pyrophosphatase (Plasmodium falciparum 3D7, UniProt Q8II92, I117A); experiment: Inhibition of recombinant Plasmodium falciparum dUTPase I117A mutant expressed in Escherichia coli BL21(DE3) cells using dUTP as substrate by spectrophotometric analysis
[2] = Selectivity index, ratio of Ki for recombinant Plasmodium falciparum dUTPase F46A mutant expressed in Escherichia coli BL21(DE3) cells to Ki for human dUTPase
[3] = Selectivity index, ratio of Ki for recombinant Plasmodium falciparum dUTPase I117A mutant expressed in Escherichia coli BL21(DE3) cells to Ki for human dUTPase
dUTP pyrophosphatase [4] = target: dUTP pyrophosphatase (Plasmodium falciparum 3D7, UniProt Q8II92, K96A); experiment: Inhibition of recombinant Plasmodium falciparum dUTPase K96A mutant expressed in Escherichia coli BL21(DE3) cells using dUTP as substrate by spectrophotometric analysis
dUTP pyrophosphatase [5] = target: dUTP pyrophosphatase (Plasmodium falciparum 3D7, UniProt Q8II92, F46A); experiment: Inhibition of recombinant Plasmodium falciparum dUTPase F46A mutant expressed in Escherichia coli BL21(DE3) cells using dUTP as substrate by spectrophotometric analysis
[6] = Selectivity index, ratio of Ki for recombinant Plasmodium falciparum dUTPase K96A mutant expressed in Escherichia coli BL21(DE3) cells to Ki for human dUTPase
[7] = Selectivity index, ratio Ki for recombinant wild type Plasmodium falciparum dUTPase expressed in Escherichia coli BL21(DE3) cells to Ki for human dUTPase
[8] = Inhibition of recombinant wild type Plasmodium falciparum dUTPase expressed in Escherichia coli BL21(DE3) cells using dUTP as substrate by spectrophotometric analysis
Plasmodium falciparum = experiment: Antimalarial activity against blood stage Plasmodium falciparum infected in human red blood cells […] by propidium iodide staining based microscopic analysis; format: functional, organism-based
[9] = target: T1, Deoxyuridine 5'-triphosphate nucleotidohydrolase, mitochondrial (Homo sapiens, UniProt P33316); experiment: Inhibition of human dUTPase using dUTP as substrate by spectrophotometric analysis
T1 sequence (P33316 whole entry): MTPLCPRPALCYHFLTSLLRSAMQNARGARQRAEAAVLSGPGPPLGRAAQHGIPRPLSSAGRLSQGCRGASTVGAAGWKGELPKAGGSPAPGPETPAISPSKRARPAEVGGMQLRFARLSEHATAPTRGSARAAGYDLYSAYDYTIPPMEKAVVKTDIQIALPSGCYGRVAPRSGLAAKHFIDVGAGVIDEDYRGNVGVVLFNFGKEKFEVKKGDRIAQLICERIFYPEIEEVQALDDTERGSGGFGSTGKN

Chain of dUTP pyrophosphatase (Plasmodium falciparum 3D7, UniProt Q8II92, I117A) (Q8II92 whole entry I117A): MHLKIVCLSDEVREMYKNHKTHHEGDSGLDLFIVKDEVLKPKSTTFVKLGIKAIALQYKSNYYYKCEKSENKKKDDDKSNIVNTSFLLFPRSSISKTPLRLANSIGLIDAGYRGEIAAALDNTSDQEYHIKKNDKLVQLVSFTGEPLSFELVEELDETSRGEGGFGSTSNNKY
Chain of dUTP pyrophosphatase (Plasmodium falciparum 3D7, UniProt Q8II92, F46A) (Q8II92 whole entry F46A): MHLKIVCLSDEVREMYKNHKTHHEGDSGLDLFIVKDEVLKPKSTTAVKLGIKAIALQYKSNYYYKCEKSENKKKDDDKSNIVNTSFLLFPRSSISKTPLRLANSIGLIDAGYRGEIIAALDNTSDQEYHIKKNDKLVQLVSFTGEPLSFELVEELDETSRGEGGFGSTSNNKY
Chain of dUTP pyrophosphatase (Plasmodium falciparum 3D7, UniProt Q8II92, K96A) (Q8II92 whole entry K96A): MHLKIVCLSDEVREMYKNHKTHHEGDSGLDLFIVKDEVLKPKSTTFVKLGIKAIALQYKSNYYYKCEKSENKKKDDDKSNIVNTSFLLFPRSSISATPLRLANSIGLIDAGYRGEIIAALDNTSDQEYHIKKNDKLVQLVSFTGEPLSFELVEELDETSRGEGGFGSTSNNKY

Structure (SMILES) | Ki (dUTP pyrophosphatase [1]) [µM] | Ratio Ki [2] | Ratio Ki [3] | Ki (dUTP pyrophosphatase [4]) [µM] | Ki (dUTP pyrophosphatase [5]) [µM] | Ratio Ki [6] | Ratio Ki [7] | Ki [8] [µM] | IC50 (Plasmodium falciparum) [µM] | Ki [9] [µM]
O=c1ccn(C/C=C/COC(c2ccccc2)(c2ccccc2)c2ccccc2)c(=O)[nH]1 | 0.8 | > 167 | > 1250 | 0.09 | 6 | > 11100 | > 1670 | 0.6 |  | 
O=c1ccn([C@H]2C=C[C@@H](COC(c3ccccc3)(c3ccccc3)c3ccccc3)O2)c(=O)[nH]1 | 1.6 | 8 | 98 | 0.39 | 20.3 | 402 | 83 | 1.9 | > 11 | 157
O=c1ccn(COCCOC(c2ccccc2)(c2ccccc2)c2ccccc2)c(=O)[nH]1 | 8 | 1.3 | 2.1 |  | 13 |  | 24 | 0.7 |  | 
O=c1ccn([C@H]2C[C@H](F)[C@@H](COC(c3ccccc3)(c3ccccc3)c3ccccc3)O2)c(=O)[nH]1 | 406 | 2 | 1.1 | 4.8 | 225 | 95 | 91 | 5 |  | 
CC(C)(C)[Si](OC[C@@H]1C=C[C@H](n2ccc(=O)[nH]c2=O)O1)(c1ccccc1)c1ccccc1 | 0.8 | > 59 | > 1250 | 0.21 | 17 | > 2560 | > 833 | 1.2 | 3 | > 1000
O=c1ccn([C@H]2C[C@H](O)[C@@H](CNC(c3ccccc3)(c3ccccc3)c3ccccc3)O2)c(=O)[nH]1 | 1.3 | 2.3 | 35 | 0.11 | 20 | 418 | 192 | 0.24 |  | 
O=c1ccn(CCCNC(c2ccccc2)(c2ccccc2)c2ccccc2)c(=O)[nH]1 | 0.6 | 0.04 | 2.4 | 0.04 | 28 | 35 | 7 | 0.2 |  | 
O=c1ccn(CCC(CO)CNC(c2ccccc2)(c2ccccc2)c2ccccc2)c(=O)[nH]1 (centres undefined) | 0.27 | 0.19 | 21 | 0.04 | 29 | 142 | 28 | 0.2 |  | 
O=c1ccn(CCCCCCNC(c2ccccc2)(c2ccccc2)c2ccccc2)c(=O)[nH]1 | 4.4 | > 29 | > 227 | 0.15 | 35 | > 6670 | > 556 | 1.8 |  | 
